Experimental data published in patent publication US8481586B2, “Pyrrolo[2,3-a] carbazoles and use thereof as PIM kinase inhibitors” (Centre National de la Recherche Scientifique, priority 2008, dated 2013).

Key:
Assay in all cases: kinase panel residual activity test
Type in all cases: biochemical
Conditions in all cases: compound at 10 μM
p38s MAPK = p38s MAPK (Homo sapiens (Human), UniProt O15264)
Description: (§1) MKK1, ERK 1, ERK 2, JNK1, JNK2, JNK3, p38a MAPK, p38b MAPK, p38g MAPK, p38s MAPK, ERK8, RSK1, RSK2, PDK1, PKBa, PKBb, SGK1, S6K1, PKA, ROCK2, PRK2, PKCa, PKC zeta, PKD1, MSK1, MNK1, MNK2, MAPKAP-K2, MAPKAP-K3, PRAK, CAMKKa, CAMKKb, CAMK1, SmMLCK, PHK, CHK1, CHK2, GSK3b, CDK2/cyclin A, PLK1, PLK1 (Okadaic acid), Aurora B, Aurora C, AMPK, MARK3, BRSK2, MELK, CK1, CK2, NEK2a, NEK6, NEK7, IKKb, PIM-1, PIM-2, PIM-3, SRPK1, MST2, EF2K, HIPK2, HIPK3, PAK-4, PAK5, PAK6, Src, Lck, CSK.

PKCa = PKCa (Homo sapiens (Human), UniProt P17252)
Description: as §1

PRK2 = PRK2 (Homo sapiens (Human), UniProt Q16513)
Description: as §1

CAMK1 = CAMK1 (Homo sapiens (Human), UniProt Q14012)
Description: as §1

Aurora B = Aurora B (Homo sapiens (Human), UniProt Q96GD4)
Description: as §1

SmMLCK = system: SmMLCK
Description: as §1

PAK6 = PAK6 (Homo sapiens (Human), UniProt Q9NQU5)
Description: as §1

IKKb = IKKb (Homo sapiens (Human), UniProt O14920)
Description: as §1

PLK1 (Okadaic acid) = PLK1 (Okadaic acid) (Homo sapiens (Human), UniProt P53350)
PLK1 (Okadaic acid), sequence (P53350 whole entry, species assumed): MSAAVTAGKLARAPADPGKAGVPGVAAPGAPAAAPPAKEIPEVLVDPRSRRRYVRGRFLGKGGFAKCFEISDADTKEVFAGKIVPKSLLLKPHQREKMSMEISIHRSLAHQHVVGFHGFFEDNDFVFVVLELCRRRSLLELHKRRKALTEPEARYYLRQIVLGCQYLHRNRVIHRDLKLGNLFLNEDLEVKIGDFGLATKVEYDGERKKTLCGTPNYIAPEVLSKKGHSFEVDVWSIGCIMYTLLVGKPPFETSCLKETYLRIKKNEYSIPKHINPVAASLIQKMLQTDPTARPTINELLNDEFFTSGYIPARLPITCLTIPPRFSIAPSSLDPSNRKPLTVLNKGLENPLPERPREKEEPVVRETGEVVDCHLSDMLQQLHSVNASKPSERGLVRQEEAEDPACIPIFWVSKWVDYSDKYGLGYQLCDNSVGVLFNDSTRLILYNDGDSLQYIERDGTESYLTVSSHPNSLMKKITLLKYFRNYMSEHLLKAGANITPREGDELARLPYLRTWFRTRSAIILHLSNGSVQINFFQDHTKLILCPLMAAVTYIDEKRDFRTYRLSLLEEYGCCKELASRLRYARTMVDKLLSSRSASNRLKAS
Description: as §1

ERK1 = ERK1 (Homo sapiens (Human), UniProt P27361)
Description: as §1

BRSK2 = BRSK2 (Homo sapiens (Human), UniProt Q8IWQ3)
BRSK2, sequence (Q8IWQ3 whole entry, species assumed): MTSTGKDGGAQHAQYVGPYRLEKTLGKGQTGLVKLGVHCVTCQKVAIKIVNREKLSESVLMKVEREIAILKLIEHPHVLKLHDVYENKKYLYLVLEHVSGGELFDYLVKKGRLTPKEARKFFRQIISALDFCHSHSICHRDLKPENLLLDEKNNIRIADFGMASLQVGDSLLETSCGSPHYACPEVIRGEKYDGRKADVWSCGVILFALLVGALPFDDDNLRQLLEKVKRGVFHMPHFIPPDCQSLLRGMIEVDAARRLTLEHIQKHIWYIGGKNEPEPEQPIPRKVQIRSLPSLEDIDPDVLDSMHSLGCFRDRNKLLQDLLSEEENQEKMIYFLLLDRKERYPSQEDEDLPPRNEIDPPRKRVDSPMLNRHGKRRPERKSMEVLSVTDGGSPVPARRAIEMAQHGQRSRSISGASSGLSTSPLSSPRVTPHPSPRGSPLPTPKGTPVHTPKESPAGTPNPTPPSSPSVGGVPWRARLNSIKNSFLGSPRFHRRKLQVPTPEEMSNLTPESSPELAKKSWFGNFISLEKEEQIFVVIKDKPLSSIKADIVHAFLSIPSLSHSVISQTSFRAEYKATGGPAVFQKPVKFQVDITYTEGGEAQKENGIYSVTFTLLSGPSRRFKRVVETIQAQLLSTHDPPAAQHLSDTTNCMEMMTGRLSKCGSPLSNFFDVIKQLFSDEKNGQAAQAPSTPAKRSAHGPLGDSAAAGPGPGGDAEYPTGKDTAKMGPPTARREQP
Description: as §1

JNK2 = JNK2 (Homo sapiens (Human), UniProt P45984)
JNK2, sequence (P45984 whole entry, species assumed): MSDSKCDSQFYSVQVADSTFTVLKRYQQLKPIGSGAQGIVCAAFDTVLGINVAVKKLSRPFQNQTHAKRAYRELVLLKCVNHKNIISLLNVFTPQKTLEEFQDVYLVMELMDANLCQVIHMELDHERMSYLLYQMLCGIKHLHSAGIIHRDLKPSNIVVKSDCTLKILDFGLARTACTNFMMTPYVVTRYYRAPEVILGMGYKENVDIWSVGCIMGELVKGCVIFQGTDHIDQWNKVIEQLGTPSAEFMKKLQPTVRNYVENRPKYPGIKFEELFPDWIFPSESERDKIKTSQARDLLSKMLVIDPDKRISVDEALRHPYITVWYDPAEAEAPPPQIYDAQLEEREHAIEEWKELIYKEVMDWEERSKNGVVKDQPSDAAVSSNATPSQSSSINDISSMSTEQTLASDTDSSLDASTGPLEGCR
Description: as §1

PHK = system: PHK
Description: as §1

JNK3 = JNK3 (Homo sapiens (Human), UniProt P53779)
JNK3, sequence (P53779 whole entry, species assumed): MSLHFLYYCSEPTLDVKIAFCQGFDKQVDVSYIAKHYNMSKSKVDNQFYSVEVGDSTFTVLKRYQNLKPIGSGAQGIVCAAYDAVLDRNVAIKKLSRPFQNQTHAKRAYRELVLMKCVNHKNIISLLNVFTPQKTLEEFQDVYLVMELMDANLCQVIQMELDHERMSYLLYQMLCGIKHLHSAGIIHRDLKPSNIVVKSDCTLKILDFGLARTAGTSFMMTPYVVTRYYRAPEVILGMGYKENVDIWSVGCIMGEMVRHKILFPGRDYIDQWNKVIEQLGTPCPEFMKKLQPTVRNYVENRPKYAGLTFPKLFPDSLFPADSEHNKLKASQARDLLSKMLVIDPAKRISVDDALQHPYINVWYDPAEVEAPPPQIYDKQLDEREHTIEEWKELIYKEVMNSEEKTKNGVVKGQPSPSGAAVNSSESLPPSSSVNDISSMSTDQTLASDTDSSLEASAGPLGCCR
Description: as §1

NEK7 = NEK7 (Homo sapiens (Human), UniProt Q8TDX7)
NEK7, sequence (Q8TDX7 whole entry, species assumed): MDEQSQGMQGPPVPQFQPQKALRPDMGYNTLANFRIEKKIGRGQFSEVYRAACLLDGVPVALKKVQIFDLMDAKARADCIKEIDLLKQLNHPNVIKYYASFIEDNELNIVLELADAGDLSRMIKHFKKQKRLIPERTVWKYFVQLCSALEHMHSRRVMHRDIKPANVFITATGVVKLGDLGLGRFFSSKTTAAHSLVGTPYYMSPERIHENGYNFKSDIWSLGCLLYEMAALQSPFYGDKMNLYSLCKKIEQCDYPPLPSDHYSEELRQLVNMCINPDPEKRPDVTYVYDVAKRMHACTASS
Description: as §1

JNK1 = JNK1 (Homo sapiens (Human), UniProt P45983)
JNK1, sequence (P45983 whole entry, species assumed): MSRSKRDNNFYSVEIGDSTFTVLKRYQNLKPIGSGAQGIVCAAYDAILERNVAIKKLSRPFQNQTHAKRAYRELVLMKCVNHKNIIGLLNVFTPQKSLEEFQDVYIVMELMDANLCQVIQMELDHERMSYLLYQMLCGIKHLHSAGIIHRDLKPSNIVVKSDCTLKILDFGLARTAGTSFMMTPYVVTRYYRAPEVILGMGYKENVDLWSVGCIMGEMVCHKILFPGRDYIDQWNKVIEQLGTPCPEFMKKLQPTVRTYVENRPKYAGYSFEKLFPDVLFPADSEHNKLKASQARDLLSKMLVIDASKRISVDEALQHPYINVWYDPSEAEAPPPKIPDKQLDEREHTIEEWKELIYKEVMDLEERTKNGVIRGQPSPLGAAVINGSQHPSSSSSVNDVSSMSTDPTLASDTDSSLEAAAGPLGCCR
Description: as §1

NEK2a = NEK2a (Homo sapiens (Human), UniProt P51955)
Description: as §1

p38b MAPK = p38b MAPK (Homo sapiens (Human), UniProt Q15759)
Description: as §1

EF2K = EF2K (Homo sapiens (Human), UniProt O00418)
Description: as §1

HIPK3 = HIPK3 (Homo sapiens (Human), UniProt Q9H422)
Description: as §1

PAK4 = PAK4 (Homo sapiens (Human), UniProt O96013)
Description: as §1

MARK3 = MARK3 (Homo sapiens (Human), UniProt P27448)
Description: as §1

CAMKKb = CAMKKb (Homo sapiens (Human), UniProt Q96RR4)
Description: as §1

MAPKAP-K2 = MAPKAP-K2 (Homo sapiens (Human), UniProt P49137)
Description: as §1

SRPK1 = SRPK1 (Homo sapiens (Human), UniProt Q96SB4)
Description: as §1

SGK1 = SGK1 (Homo sapiens (Human), UniProt O00141)
SGK1, sequence (O00141 whole entry, species assumed): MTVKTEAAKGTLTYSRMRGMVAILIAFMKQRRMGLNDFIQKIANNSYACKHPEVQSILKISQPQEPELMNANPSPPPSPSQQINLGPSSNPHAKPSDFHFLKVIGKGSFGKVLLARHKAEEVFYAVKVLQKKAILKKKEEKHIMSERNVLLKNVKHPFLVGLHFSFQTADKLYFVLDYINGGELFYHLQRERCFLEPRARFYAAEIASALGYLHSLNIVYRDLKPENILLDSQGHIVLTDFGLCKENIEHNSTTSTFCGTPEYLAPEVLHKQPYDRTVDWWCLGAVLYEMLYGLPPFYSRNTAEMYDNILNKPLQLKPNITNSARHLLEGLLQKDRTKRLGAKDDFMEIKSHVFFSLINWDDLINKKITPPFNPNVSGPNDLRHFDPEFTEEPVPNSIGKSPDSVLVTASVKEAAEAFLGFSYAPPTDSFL
Description: as §1

PKA = PKA (Homo sapiens (Human), UniProt P17612)
Description: as §1

MSK1 = MSK1 (Homo sapiens (Human), UniProt O75582)
Description: as §1

CDK2/cyclin A = CDK2/cyclin A (Homo sapiens (Human), UniProt P24941)
Description: as §1

PKBa = PKBa (Homo sapiens (Human), UniProt P31749)
Description: as §1

PKD1 = PKD1 (Homo sapiens (Human), UniProt Q15139)
PKD1, sequence (Q15139 whole entry): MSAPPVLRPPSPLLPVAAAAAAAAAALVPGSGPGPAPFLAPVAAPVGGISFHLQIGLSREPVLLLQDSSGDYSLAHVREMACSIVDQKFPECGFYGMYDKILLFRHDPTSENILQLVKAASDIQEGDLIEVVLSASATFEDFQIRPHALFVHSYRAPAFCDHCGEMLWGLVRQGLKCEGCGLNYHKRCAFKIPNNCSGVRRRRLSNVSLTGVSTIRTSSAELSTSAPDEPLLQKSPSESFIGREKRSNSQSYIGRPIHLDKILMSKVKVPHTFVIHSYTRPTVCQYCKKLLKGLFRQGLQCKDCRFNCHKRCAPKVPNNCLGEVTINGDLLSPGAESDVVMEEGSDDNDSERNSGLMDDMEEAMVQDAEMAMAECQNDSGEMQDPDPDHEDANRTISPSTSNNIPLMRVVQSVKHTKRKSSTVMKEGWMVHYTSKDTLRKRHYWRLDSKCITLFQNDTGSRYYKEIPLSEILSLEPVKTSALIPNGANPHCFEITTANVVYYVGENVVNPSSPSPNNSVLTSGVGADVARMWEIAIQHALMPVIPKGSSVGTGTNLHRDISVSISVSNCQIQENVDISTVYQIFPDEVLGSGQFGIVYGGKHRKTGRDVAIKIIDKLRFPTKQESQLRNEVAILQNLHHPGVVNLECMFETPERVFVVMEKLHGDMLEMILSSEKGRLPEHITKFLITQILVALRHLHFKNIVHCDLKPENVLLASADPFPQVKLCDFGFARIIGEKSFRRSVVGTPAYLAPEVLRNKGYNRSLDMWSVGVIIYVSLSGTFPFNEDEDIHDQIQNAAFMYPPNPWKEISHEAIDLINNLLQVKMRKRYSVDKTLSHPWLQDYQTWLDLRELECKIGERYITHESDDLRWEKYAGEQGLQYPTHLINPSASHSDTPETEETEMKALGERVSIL
Description: as §1

MNK1 = MNK1 (Homo sapiens (Human), UniProt Q9BUB5)
Description: as §1

MNK2 = MNK2 (Homo sapiens (Human), UniProt Q9HBH9)
Description: as §1

PKC zeta = PKC zeta (Homo sapiens (Human), UniProt Q05513)
Description: as §1

MAPKAP-K3 = MAPKAP-K3 (Homo sapiens (Human), UniProt Q16644)
Description: as §1

HIPK2 = HIPK2 (Homo sapiens (Human), UniProt Q9H2X6)
Description: as §1

CAMKKa = CAMKKa (Homo sapiens (Human), UniProt Q8N5S9)
Description: as §1

PRAK = PRAK (Homo sapiens (Human), UniProt Q8IW41)
Description: as §1

p38s MAPK, sequence (O15264 whole entry): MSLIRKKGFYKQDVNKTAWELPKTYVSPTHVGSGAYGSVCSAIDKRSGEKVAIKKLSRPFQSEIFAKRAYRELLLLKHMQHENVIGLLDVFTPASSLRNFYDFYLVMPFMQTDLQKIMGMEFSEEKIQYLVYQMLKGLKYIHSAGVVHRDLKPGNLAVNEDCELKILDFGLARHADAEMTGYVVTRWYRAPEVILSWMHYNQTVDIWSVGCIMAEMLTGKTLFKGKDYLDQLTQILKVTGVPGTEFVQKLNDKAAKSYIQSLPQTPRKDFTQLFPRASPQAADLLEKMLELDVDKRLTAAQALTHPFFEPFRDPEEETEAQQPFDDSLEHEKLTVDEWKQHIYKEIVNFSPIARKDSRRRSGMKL

Structure (SMILES): NC(=O)c1c[nH]c2c1ccc1c3ccccc3[nH]c12 [Example 5, 1,10-dihydropyrrolo[2,3-a]carbazole-3-carboxamide]
- remaining activity at 10 µM (p38s MAPK): 76%
- remaining activity at 10 µM (PKCa): 80%
- remaining activity at 10 µM (PRK2): 54%
- remaining activity at 10 µM (CAMK1): 80%
- remaining activity at 10 µM (Aurora B): 65%
- % residual activity SmMLCK (SmMLCK): 69%
- remaining activity at 10 µM (PAK6): 83%
- remaining activity at 10 µM (IKKb): 80%
- remaining activity at 10 µM (PLK1 (Okadaic acid)): 79%
- remaining activity at 10 µM (ERK1): 71%
- remaining activity at 10 µM (BRSK2): 32%
- remaining activity at 10 µM (JNK2): 115%
- % residual activity PHK (PHK): 43%
- remaining activity at 10 µM (JNK3): 104%
- remaining activity at 10 µM (NEK7): 89%
- remaining activity at 10 µM (JNK1): 106%
- remaining activity at 10 µM (NEK2a): 106%
- remaining activity at 10 µM (p38b MAPK): 92%
- remaining activity at 10 µM (EF2K): 92%
- remaining activity at 10 µM (HIPK3): 87%
- remaining activity at 10 µM (PAK4): 16%
- remaining activity at 10 µM (MARK3): 73%
- remaining activity at 10 µM (CAMKKb): 79%
- remaining activity at 10 µM (MAPKAP-K2): 92%
- remaining activity at 10 µM (SRPK1): 93%
- remaining activity at 10 µM (SGK1): 71%
- remaining activity at 10 µM (PKA): 80%
- remaining activity at 10 µM (MSK1): 91%
- remaining activity at 10 µM (CDK2/cyclin A): 53%
- remaining activity at 10 µM (PKBa): 97%
- remaining activity at 10 µM (PKD1): 19%
- remaining activity at 10 µM (MNK1): 19%
- remaining activity at 10 µM (MNK2): 57%
- remaining activity at 10 µM (PKC zeta): 78%
- remaining activity at 10 µM (MAPKAP-K3): 75%
- remaining activity at 10 µM (HIPK2): 42%
- remaining activity at 10 µM (CAMKKa): 75%
- remaining activity at 10 µM (PRAK): 85%

Structure (SMILES): O=Cc1c[nH]c2c1ccc1c3ccccc3[nH]c12 [Example 3, 1,10-dihydropyrrolo[2,3-a]carbazole-3-carbaldehyde]
- remaining activity at 10 µM (p38s MAPK): 92%
- remaining activity at 10 µM (PKCa): 84%
- remaining activity at 10 µM (PRK2): 31%
- remaining activity at 10 µM (CAMK1): 71%
- remaining activity at 10 µM (Aurora B): 68%
- % residual activity SmMLCK (SmMLCK): 60%
- remaining activity at 10 µM (PAK6): 94%
- remaining activity at 10 µM (IKKb): 71%
- remaining activity at 10 µM (PLK1 (Okadaic acid)): 83%
- remaining activity at 10 µM (ERK1): 87%
- remaining activity at 10 µM (BRSK2): 22%
- remaining activity at 10 µM (JNK2): 128%
- % residual activity PHK (PHK): 33%
- remaining activity at 10 µM (JNK3): 113%
- remaining activity at 10 µM (NEK7): 89%
- remaining activity at 10 µM (JNK1): 102%
- remaining activity at 10 µM (NEK2a): 88%
- remaining activity at 10 µM (p38b MAPK): 80%
- remaining activity at 10 µM (EF2K): 90%
- remaining activity at 10 µM (HIPK3): 64%
- remaining activity at 10 µM (PAK4): 88%
- remaining activity at 10 µM (MARK3): 88%
- remaining activity at 10 µM (CAMKKb): 56%
- remaining activity at 10 µM (MAPKAP-K2): 84%
- remaining activity at 10 µM (SRPK1): 84%
- remaining activity at 10 µM (SGK1): 64%
- remaining activity at 10 µM (PKA): 60%
- remaining activity at 10 µM (MSK1): 71%
- remaining activity at 10 µM (CDK2/cyclin A): 74%
- remaining activity at 10 µM (PKBa): 96%
- remaining activity at 10 µM (PKD1): 28%
- remaining activity at 10 µM (MNK1): 27%
- remaining activity at 10 µM (MNK2): 55%
- remaining activity at 10 µM (PKC zeta): 83%
- remaining activity at 10 µM (MAPKAP-K3): 69%
- remaining activity at 10 µM (HIPK2): 25%
- remaining activity at 10 µM (CAMKKa): 42%
- remaining activity at 10 µM (PRAK): 72%

Structure (SMILES): c1ccc2c(c1)[nH]c1c2ccc2cc[nH]c21 [Example 2, 1,10-dihydropyrrolo[2,3-a]carbazole]
- remaining activity at 10 µM (p38s MAPK): 78%
- remaining activity at 10 µM (PKCa): 111%
- remaining activity at 10 µM (PRK2): 95%
- remaining activity at 10 µM (CAMK1): 29%
- remaining activity at 10 µM (Aurora B): 67%
- % residual activity SmMLCK (SmMLCK): 86%
- remaining activity at 10 µM (PAK6): 92%
- remaining activity at 10 µM (IKKb): 106%
- remaining activity at 10 µM (PLK1 (Okadaic acid)): 103%
- remaining activity at 10 µM (ERK1): 108%
- remaining activity at 10 µM (BRSK2): 58%
- remaining activity at 10 µM (JNK2): 118%
- % residual activity PHK (PHK): 90%
- remaining activity at 10 µM (JNK3): 108%
- remaining activity at 10 µM (NEK7): 96%
- remaining activity at 10 µM (JNK1): 102%
- remaining activity at 10 µM (NEK2a): 104%
- remaining activity at 10 µM (p38b MAPK): 100%
- remaining activity at 10 µM (EF2K): 101%
- remaining activity at 10 µM (HIPK3): 97%
- remaining activity at 10 µM (PAK4): 84%
- remaining activity at 10 µM (MARK3): 116%
- remaining activity at 10 µM (CAMKKb): 93%
- remaining activity at 10 µM (MAPKAP-K2): 118%
- remaining activity at 10 µM (SRPK1): 90%
- remaining activity at 10 µM (SGK1): 82%
- remaining activity at 10 µM (PKA): 95%
- remaining activity at 10 µM (MSK1): 90%
- remaining activity at 10 µM (CDK2/cyclin A): 97%
- remaining activity at 10 µM (PKBa): 120%
- remaining activity at 10 µM (PKD1): 83%
- remaining activity at 10 µM (MNK1): 69%
- remaining activity at 10 µM (MNK2): 95%
- remaining activity at 10 µM (PKC zeta): 91%
- remaining activity at 10 µM (MAPKAP-K3): 89%
- remaining activity at 10 µM (HIPK2): 59%
- remaining activity at 10 µM (CAMKKa): 76%
- remaining activity at 10 µM (PRAK): 97%
